Measured values as given in patent publication US12414996B2, “Organic anion transporting peptide-based cancer imaging and therapy” (Da Zen Theranostics, Inc., priority 2014, dated 2025).

How the values were obtained:
[1] = test system: cancer; assay: In vivo cancer targeting of heptamethine cyanine dye derivatives (Nuclear/NIR imaging); settings: tumor specific uptake by Nuclear/NIR imaging
Description: The inventor synthesized several heptamethine cyanine dye derivatives (Table 1) and evaluated the tumor specific uptake using Nuclear/NIR imaging.

[2] = test system: ACHN; assay: Tumor cell growth inhibition IC50, ACHN; assay type: cell-based; settings: Renal Cancer cell line ACHN; read-out: Half maximal inhibitory concentration (IC50) ACHN
Description: (§1) In addition to DZ-1-Gem, some agents of the invention may include other antitumor active moieties, such as cisplatin. For example, the tumor cell growth inhibition activities of DZ-1 linked with cisplatin (“DZ-1-cisplatin”) were compared with those of cisplatin alone in various tumor cells, including prostate, breast, renal, kidney, and lung cancer cell lines.

[3] = test system: H358; assay: Tumor cell growth inhibition IC50, H358; assay type: cell-based; settings: Lung Cancer cell line H358; read-out: Half maximal inhibitory concentration (IC50) H358
Description: as §1

[4] = test system: C4-2B; assay: Tumor cell growth inhibition IC50, C4-2B; assay type: cell-based; settings: Prostate Cancer cell line C4-2B; read-out: Half maximal inhibitory concentration (IC50) C4-2B
Description: as §1

[5] = test system: PC3; assay: Tumor cell growth inhibition IC50, PC3; assay type: cell-based; settings: Prostate Cancer cell line PC3; read-out: Half maximal inhibitory concentration (IC50) PC3
Description: as §1

[6] = test system: LNCaP; assay: Tumor cell growth inhibition IC50, LNCaP; assay type: cell-based; settings: Prostate Cancer cell line LNCaP; read-out: Half maximal inhibitory concentration (IC50) LNCaP
Description: as §1

[7] = test system: Hep G2; assay: Tumor cell growth inhibition IC50, Hep G2; assay type: cell-based; settings: Hepatic Cancer cell line Hep G2; read-out: Half maximal inhibitory concentration (IC50) Hep G2
[8] = test system: C4-2B; assay: Cytotoxicity (IC50) on cancer cell growth in vitro, C4-2B; assay type: cell-based, human; settings: C4-2B prostate cancer cells in culture
[9] = test system: PC-3; assay: Cytotoxicity (IC50) on cancer cell growth in vitro, PC-3; assay type: cell-based, human; settings: PC-3 prostate cancer cells in culture
[10] = test system: LNCaP; assay: Cytotoxicity (IC50) on cancer cell growth in vitro, LNCaP; assay type: cell-based, human; settings: LNCaP prostate cancer cells in culture
[11] = test system: BX-PC3; assay: Cytotoxicity (IC50) on cancer cell growth in vitro, BX-PC3; assay type: cell-based, human; settings: BX-PC3 pancreatic cancer cells in culture
[12] = test system: MiaPaCa II; assay: Cytotoxicity (IC50) on cancer cell growth in vitro, MiaPaCa II; assay type: cell-based, human; settings: MiaPaCa II pancreatic cancer cells in culture
[13] = test system: C4-2; assay: Cytotoxicity (IC50) on cancer cell growth in vitro, C4-2; assay type: cell-based, human; settings: C4-2 prostate cancer cells in culture
[14] = test system: prostate PDX tumors; assay: Uptake of NIR dye by prostate PDX tumors implanted in mouse subrenal capsules; assay type: in vivo; settings: i.p., imaging after 48 hours, excitation 783 nm, emission 840 nm
Protocol: (A) Representative NIR fluorescence imaging of control mouse with no tumor and mouse with sham-operation and PCa implantation in the subrenal capsules of the kidneys. Mice were injected i.p with NIR dye, MHI-148, 48 hours before fluorescence imaging at excitation of 783 nm and emission of 840 nm. […] (B) Representative ex vivo NIR fluorescence imaging of kidneys with sham operation and PCa tumor implantations. NIR fluorescence signal was only detected in the growing PCa tumors implanted in the subrenal capsule of the right kidney. (C) Fluorescent microscopy of DAPI, NIR, and merged images of frozen sections of the human PCa tumor and the mouse kidney from the subrenal xenograft model (200× magnification) (D) Representative H&E staining of the PCa tumors implanted in the mouse kidney capsule (40× magnification; inlet: 400× magnification).
The uptakes of NIR dye MHI-148 by prostate PDX tumors implanted in mouse subrenal capsules were investigated. […] Mice were injected i.p with NIR dye, MHI-148. After 48 hours, fluorescence imaging was performed with an excitation of 783 nm and emission of 840 nm. […] NIR fluorescence signal was only detected in the growing prostate cancer tumors implanted in the subrenal capsule of the right kidney.

[15] = test system: pancreatic PDX tumors; assay: Uptake of NIR dye by pancreatic PDX tumors implanted in mouse subrenal capsules; assay type: in vivo; settings: subrenal capsule implant
Description: (A) NIR fluorescent imaging of mouse bearing human pancreatic PDX tumors in subrenal capsules (excitation: 783 nm; […] nm) (B) Ex vivo bright field and NIR fluorescent imaging of pancreatic PDX tumors in the kidney capsules and other organs harvested from mouse and (C) the NIR fluorescent intensity was quantified for the tumor and for each organ (total radiance efficiency [p/s]/[μW/cm^2]) (D) Fluorescent microscopy of DAPI, NIR, and merged images of frozen section of pancreatic PDX tumor in the kidney capsule. White dash line outlines the mouse kidney and red dash line outlines the pancreatic PDX tumor.
The uptakes of NIR dye MHI-148, by pancreatic patient-derived xenografts (PDX) tumors implanted in mouse subrenal capsules were investigated. […] White dash line outlines the mouse kidney and red dash line outlines the pancreatic PDX tumor.

[16] = test system: MCF-7; assay: Tumor cell growth inhibition IC50, MCF-7; assay type: cell-based; settings: Breast Cancer cell line MCF-7; read-out: Half maximal inhibitory concentration (IC50) MCF-7
Description: as §1

[17] = test system: prostate cancer PC3 tumors; assay: Uptake by prostate cancer PC3 tumors in mice (NIR imaging); assay type: in vivo; settings: for uptake by PC3 tumor in mice: 100 nmole i.p., imaged 48 hours thereafter
[18] = test system: U87 cells; settings: 200 nM, 4 consecutive days
Protocol: (§2) (A) Uptake of DZ-1-Gem (5 μM, 10 min) by U87 and CW22Rv1 cells. IR-783 was used a positive control in parallel. Scale bar represents 50 μm. (B) Proliferation of U87 cells treated with vehicle, gemcitabine (200 nM) or DZ-1-Gem (200 nM) for 4 consecutive days.
(§3) In these experiments, cells were fixed and stained with crystal violet, and OD value at the wavelength of 595 nm was determined (n=5 for each experimental group, mean±SEM) *p<0.05, **p<0.01.

[19] = test system: intracranial U87 tumor; settings: 10 mg/kg, twice a week
Protocol: as §2, §3

[20] = test system: prostate cancer PC3 cells; settings: DZ-1-gemcitabine 10 mg/kg vs gemcitabine 2.5 mg/kg, twice a week i.p.
Description: (§4) Arrows indicate the onset of treatments. * p<0.05; ** p<0.01; *** p<0.001.
as §4

[21] = test system: pancreatic MIAPaCa cells; settings: DZ-1-gemcitabine 10 mg/kg vs gemcitabine 2.5 mg/kg, twice a week i.p.
Description: as §4, §4

[22] = test system: U87 cells; settings: 5 μM, 10 min
Protocol: as §2
(§5) IR-783 was used a positive control in parallel. Scale bar represents 50 μm.

[23] = test system: CW22Rv1 cells; settings: 5 μM, 10 min
Protocol: as §2, §5

[24] = test system: MIAPaCa tumors; settings: 10 mg/kg; subcutaneous luc-tagged MIAPaCa tumors; in vivo and ex vivo imaging
[25] = test system: CW22Rv1 prostate tumor brain metastases; assay: Survival of mice bearing CW22Rv1 prostate tumor brain metastases (Kaplan-Meier); assay type: in vivo; settings: 10 mg/kg, twice a week; p<0.001 (log-rank test) vs vehicle
Description: as §5

## CC1(C)C(/C=C/C2=C(Cl)C(=C/C=C3/N(CCCCCC(=O)O)c4ccccc4C3(C)C)/CCC2)=[N+](CCCCS(=O)(=O)[O-])c2ccccc21
[1]
  Cancer targeting: Positive

## CC1(C)C(/C=C/C2=C(SCCC(=O)Nc3ccn(C4OC(CO)C(O)C4(F)F)c(=O)n3)C(=C/C=C3/N(CCCCS(=O)(=O)O)c4ccccc4C3(C)C)/CCC2)=[N+](CCCCS(=O)(=O)[O-])c2ccccc21 (stereo not drawn)
[1]
  Cancer targeting: Negative

## CC1(C)C(/C=C/C2=C(Cl)C(=C/C=C3/N(CCCCCC(=O)O)c4ccccc4C3(C)C)/CCC2)=[N+](CCCCCC(=O)O)c2ccccc21
[1]
  Cancer targeting: Positive

## CC1(C)C(/C=C/C2=C(NCCCC(=O)O)C(=C/C=C3/N(CCCCS(=O)(=O)O)c4ccccc4C3(C)C)/CCC2)=[N+](CCCCS(=O)(=O)[O-])c2ccccc21
[1]
  Cancer targeting: Negative

## CC1(C)C(/C=C/C2=C(Cl)C(=C/C=C3/N(CCCCS(=O)(=O)O)c4ccccc4C3(C)C)/CCC2)=[N+](CCCCS(=O)(=O)[O-])c2ccccc21
[1]
  Cancer targeting: Positive

## CC1(C)C(/C=C/C2=C(Cl)C(=C/C=C3/N(CCCCCC(=O)NCCCCC(NC(=O)CN4CCN(CC(=O)O)CCN(CC(=O)O)CCN(CC(=O)O)CC4)C(=O)O)c4ccccc4C3(C)C)/CCC2)=[N+](CCCCS(=O)(=O)[O-])c2ccccc21 (stereo not drawn)
[1]
  Cancer targeting: Positive

## CC1(C)C(/C=C/C2=C(Cl)C(=C/C=C3/N(CCCCCC(=O)Nc4ccn(C5OC(CO)C(O)C5(F)F)c(=O)n4)c4ccccc4C3(C)C)/CCC2)=[N+](CCCCS(=O)(=O)[O-])c2ccccc21 (stereo not drawn)
[1]
  Cancer targeting: Positive

## CC1(C)C(/C=C/C2=C(Cl)C(=C/C=C3/N(CCCCCC(=O)Nc4ccc(CC5CN(CC(=O)O)CCN(CC(=O)O)CCN5CC(=O)O)cc4)c4ccccc4C3(C)C)/CCC2)=[N+](CCCCS(=O)(=O)[O-])c2ccccc21 (stereo not drawn)
[1]
  Cancer targeting: Positive

## CC1(C)C(/C=C/C2=C(SCCCC(=O)O)C(=C/C=C3/N(CCCCS(=O)(=O)O)c4ccccc4C3(C)C)/CCC2)=[N+](CCCCS(=O)(=O)[O-])c2ccccc21
[1]
  Cancer targeting: Negative

## CCC(=[N][Pt]([NH2])([NH2])[Cl])N(C)CCNC(=O)CCCCCN1/C(=C/C=C2\CCCC(/C=C/C3=[N+](CCCCS(=O)(=O)[O-])c4ccccc4C3(C)C)=C2Cl)C(C)(C)c2ccccc21
[1]
  Cancer targeting: Positive

## N.N.[Cl][Pt][Cl] [Cisplatin, reference compound]
[2]
  IC50: 28700 nM
[3]
  IC50: > 50000 nM
[4]
  IC50: > 50000 nM
[5]
  IC50: > 50000 nM
[6]
  IC50: > 50000 nM
[7]
  IC50: > 50000 nM

## C#CCN(C)CCCOc1ccc(Cl)cc1Cl [Clorgyline]
[8]
  IC50: 114000 nM
[9]
  IC50: 120000 nM
[10]
  IC50: 81000 nM

## CC(=O)O[C@@]12CO[C@@H]1C[C@H](O)[C@@]1(C)C(=O)[C@H](O)C3=C(C)[C@@H](OC(=O)[C@H](O)[C@@H](NC(=O)OC(C)(C)C)c4ccccc4)C[C@@](O)([C@@H](OC(=O)c4ccccc4)[C@H]21)C3(C)C [Docetaxel]
[9]; Homo sapiens
  IC50: 330 nM
[11]; Homo sapiens, BXPC-3
  IC50: 7 nM
[10]; Homo sapiens
  IC50: 10 nM
[12]; Homo sapiens, MIA PaCa-2
  IC50: 6 nM
[13]; Homo sapiens
  IC50: 3200 nM

## Nc1ccn([C@@H]2O[C@H](CO)[C@@H](O)C2(F)F)c(=O)n1 [Gemcitabine]
[9]; Homo sapiens
  IC50: 380 nM
[11]; Homo sapiens, BXPC-3
  IC50: 135 nM
[10]; Homo sapiens
  IC50: 250 nM
[12]; Homo sapiens, MIA PaCa-2
  IC50: 22 nM
[13]; Homo sapiens
  IC50: 85 nM

## CC1(C)C(/C=C/C2=C(Cl)C(=C/C=C3\N(CCCCCC(=O)O)c4ccccc4C3(C)C)/CCC2)=[N+](CCCCCC(=O)O)c2ccccc21 [MHI-148]
[14]
  NIR fluorescence signal (uptake) in prostate PDX tumor vs sham-operated kidney and control mouse: Only the prostate cancer tumor implanted in the subrenal capsule of the right kidney showed the NIR fluorescence signal
[15]
  uptake of NIR dye in pancreatic PDX tumor vs mouse kidney (fluorescent microscopy of frozen section): Only the pancreatic tumor uptakes the NIR dye

## IR-783-N1-methylethylenediamine-cisplatin [DZ-1-cisplatin]
[2]
  IC50: 4030 nM
[3]
  IC50: 4950 nM
[4]
  IC50: 15900 nM
[16]
  IC50: 13100 nM
[5]
  IC50: 7570 nM
[17]
  uptake by PC3 tumor in mice: accumulate only in the tumor cells, but not in the normal organs
[6]
  IC50: 21600 nM
[7]
  IC50: > 50000 nM

## IR-783-gemcitabine [DZ-1-gemcitabine]
[9]
  IC50: 420 nM
[18]
  inhibition of U87 cell proliferation: as effective as Gem
[19]
  intracranial U87 tumor growth (bioluminescence): effectively suppressed tumor growth, resulting in no bioluminescence
[20]
  prevention and inhibition of subcutaneous PC3 tumor growth (tumor volume): more effective than Gemcitabine
[21]
  prevention and inhibition of subcutaneous MIAPaCa tumor growth (tumor volume): more effective than Gemcitabine
[11]
  IC50: 230 nM
[22]
  uptake by U87 cells: readily taken up
[23]
  uptake by CW22Rv1 cells: readily taken up
[10]
  IC50: 340 nM
[12]
  IC50: 85 nM
[13]
  IC50: 93 nM
[17]
  uptake by PC3 tumor in mice: accumulate only in the tumor cells, but not in the normal organs
[17]; 10 mg/kg, subcutaneous luc-tagged PC3 tumors, in vivo and ex vivo imaging
  uptake by PC3 tumors vs normal organs: specifically by prostate and pancreatic tumors but not normal organs
[24]
  uptake by MIAPaCa tumors vs normal organs: specifically by prostate and pancreatic tumors but not normal organs
[25]
  survival of mice: significantly improved survival
